Experimental findings from US5686449A, “1,5-benzodiazepines useful as gastrinor CCK-antagonists” (priority 1994, dated 1997) are described below.

The target of one experiment is T1, CCK-B receptor (Cavia porcellus, UniProt H0VZC5).
T1 construct: CCK-B receptor (guinea pig cortex assay); from tissue; host or cells: guinea pig cortex
T1 sequence (H0VZC5 1-426): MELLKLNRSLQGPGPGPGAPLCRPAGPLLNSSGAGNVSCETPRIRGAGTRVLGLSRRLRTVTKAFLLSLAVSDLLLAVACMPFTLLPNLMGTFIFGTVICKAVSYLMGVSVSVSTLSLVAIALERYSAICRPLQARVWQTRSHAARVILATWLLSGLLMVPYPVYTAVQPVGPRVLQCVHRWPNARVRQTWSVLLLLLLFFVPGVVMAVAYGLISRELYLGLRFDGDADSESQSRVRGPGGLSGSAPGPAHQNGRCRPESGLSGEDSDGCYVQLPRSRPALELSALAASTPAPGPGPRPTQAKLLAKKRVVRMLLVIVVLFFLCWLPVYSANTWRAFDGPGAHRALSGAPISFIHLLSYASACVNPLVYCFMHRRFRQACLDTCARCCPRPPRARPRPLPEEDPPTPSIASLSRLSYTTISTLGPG
The experiment is described as follows: CCK receptor binding, CCK-B (guinea pig cortex assay). The procedure: (§1) Exp & Ther. 261, 1056-1063, 1992.
(§2) The binding affinity of the compounds of the invention for the CCK-A receptor (Pancreas Assay) and CCK-B receptor (guinea pig cortex assay) was determined using the procedure of G Dal Forno et al J. Pharmacol. Exp & Ther. 261-1056-1063.

The target of another experiment is CCK-A receptor. The experiment is described as follows: CCK receptor binding, CCK-A (Pancreas Assay). As for the experimental part: as §1, §2
[1] abbreviates: CCK-B receptor, guinea pig cortex assay, read-out: pKi CCK-B (converted).

Read-outs that look alike come from different tables or passages of the source.

Consider `CN1C(=O)C(NC(=O)Nc2ccccc2)C(=O)N(CC23CC4CC(CC(C4)C2)C3)c2ccccc21` (single isomer, unassigned; (-)) [Example 8, (-)-N-[1-(Adamantylmethyl)-2,4-dioxo-5-methyl-2,3,4,5-tetrahydro-1H-1,5-benzodiazepin-3-yl]-N'-phenylurea], for which the Ki on CCK-B receptor (setting [1]) is 1 nM.

On to `O=C(Nc1ccccc1)NC1C(=O)N(CCO)c2ccccc2N(CC23CC4CC(CC(C4)C2)C3)C1=O` (single isomer, unassigned; (-)) [Example 11, (-)-N-[1-(Adamantylmethyl)-2,4-dioxo-5-(2-hydroxyethyl)-2,3,4,5-tetrahydro-1H-1,5-benzodiazepin-3-yl]-N'-phenylurea], for which the Ki on CCK-B receptor (setting [1]) is 0.251 nM.

On to `CC(C)CCN1C(=O)C(NC(=O)Nc2ccccc2)C(=O)N(CC23CC4CC(CC(C4)C2)C3)c2ccccc21` (centres unmarked) [Example 1, N-[1-(1-Adamantylmethyl)-2,4-dioxo-5-(3-methylbut-1-yl)-2,3,4,5-tetrahydro-1H-1,5-benzodiazepin-3-yl]-N'-phenylurea], for which, at CCK-A receptor, the “pKi CCK-A” value came out at 6.54. In addition, the Ki at CCK-B receptor (setting [1]) is 1.38 nM.

With `CC(C)CCN1C(=O)C(NC(=O)Nc2cccc(N(C)C)c2)C(=O)N(CC23CC4CC(CC(C4)C2)C3)c2ccccc21` (centres unmarked) [Example 2, N-[1-(1-Adamantylmethyl)-2,4-dioxo-5-(3-methylbut-1-yl)-2,3,4,5-tetrahydro-1H-1,5-benzodiazepin-3-yl]-N'-[3-(N,N-dimethylamino)phenyl]urea], on CCK-A receptor, the “pKi CCK-A” value is 6.02. Further, the Ki on CCK-B receptor was 5.62 nM.

On to `O=C(Nc1ccccc1)NC1C(=O)N(CC23CC4CC(CC(C4)C2)C3)c2ccccc2N(C2CCCCC2)C1=O` (centres unmarked) [Example 3], for which the “pKi CCK-A” value on CCK-A receptor came out at 6.25. Also, the Ki at CCK-B receptor was 2.4 nM.

Take `CC(C)CCN1C(=O)C(NC(=O)Oc2cccc(N(C)C)c2)C(=O)N(CC23CC4CC(CC(C4)C2)C3)c2ccccc21` (centres unmarked) [Example 4, 1-(1-Adamantylmethyl)-3-[3-(N,N-dimethylamino)phenyloxycarbonyl]amino-2,4-dioxo-5-(3-methylbut-1-yl)-2,3,4,5-tetrahydro-1H-1,5-benzodiazepine]: the “pKi CCK-A” value at CCK-A receptor was 5.80. This compound also gave a Ki on CCK-B receptor of 7.59 nM.

With `O=C(Nc1ccccc1)NC1C(=O)N(CCO)c2ccccc2N(CC23CC4CC(CC(C4)C2)C3)C1=O` (centres unmarked) [Example 9, N-[1-(Adamantylmethyl)-2,4-dioxo-5-(2-hydroxyethyl)-2,3,4,5-tetrahydro-1H-1,5-benzodiazepin-3-yl]-N'-phenylurea], the Ki on CCK-B receptor (setting [1]) is 1.41 nM.

Consider `Cc1cccc(NC(=O)NC2C(=O)N(CCO)c3ccccc3N(CC34CC5CC(CC(C5)C3)C4)C2=O)c1` (centres unmarked) [Example 10], for which the “pKi CCK-A” value at CCK-A receptor is recorded as 6.8. In addition, the Ki on CCK-B receptor (setting [1]) is 0.398 nM.

As to `CCCCN1C(=O)C(NC(=O)Nc2ccc(OC)cc2)C(=O)N(CCC(C)C)c2ccccc21` (centres unmarked) [Example 12], the “pKi CCK-A” value at CCK-A receptor is given as 6.16. In addition, the Ki on CCK-B receptor (setting [1]) was 2.04 nM.

Consider `O=C(Nc1ccccc1)NC1C(=O)N(CCCO)c2ccccc2N(CC23CC4CC(CC(C4)C2)C3)C1=O` (centres unmarked) [Example 14, N-[1-(Adamantane-1-methyl)-2,4-dioxo-5-(3-hydroxypropyl)-2,3,4,5-tetrahydro-1H-1,5-benzodiazepin-3-yl]-N'-phenylurea], for which, on CCK-A receptor, the “pKi CCK-A” value was 6.09. Besides, on CCK-B receptor (setting [1]), the Ki was 0.389 nM.
